For assay [1], the target named is T1, GAL-4-PPAR-gamma chimera (Homo sapiens, UniProt P37231).
T1 construct: GAL-4 (fusion partner of the chimera)
As to conditions: compounds isolated from EtOH extract of licorice; cited from earlier work.

Assay [2] addresses T2, PPARγ (Homo sapiens, UniProt P37231).
T2 sequence (P37231 1-505): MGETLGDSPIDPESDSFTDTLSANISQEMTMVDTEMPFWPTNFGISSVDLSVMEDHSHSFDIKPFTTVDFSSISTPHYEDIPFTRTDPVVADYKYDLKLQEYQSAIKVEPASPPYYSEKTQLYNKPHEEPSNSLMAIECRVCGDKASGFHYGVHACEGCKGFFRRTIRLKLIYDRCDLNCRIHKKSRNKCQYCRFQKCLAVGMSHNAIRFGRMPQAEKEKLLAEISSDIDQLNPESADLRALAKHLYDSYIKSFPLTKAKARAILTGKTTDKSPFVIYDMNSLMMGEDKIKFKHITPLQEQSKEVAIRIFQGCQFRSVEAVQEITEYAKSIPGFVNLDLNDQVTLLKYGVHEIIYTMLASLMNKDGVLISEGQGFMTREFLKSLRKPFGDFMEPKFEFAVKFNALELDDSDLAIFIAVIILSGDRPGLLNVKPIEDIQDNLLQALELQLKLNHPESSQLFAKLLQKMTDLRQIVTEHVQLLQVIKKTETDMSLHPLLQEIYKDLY
As to conditions: cited from earlier work.

Assay [3] deals with msP rats. As to the kind of experiment: Central PPAR antagonist GW9662 on andrographolide-induced reduction of alcohol intake in msP rats. Format: in vivo, rat. As to the method: GW9662, purchased from Tocris (Bristol, UK), was dissolved in 10% DMSO and 3% Tween 80 and the final volume (5 μg/μl) was adjusted adding distilled water. GW9662 was injected ICV in a volume of 1 μl per rat by means of a stainless-steel injector 2.5 mm longer than the guide cannula, so that its tip protruded into the ventricle.
A 22-gauge guide cannula for intracerebroventricular (ICV) drug injections was stereotaxically implanted into the lateral cerebroventricle with the following coordinates: anteroposterior (AP)=1.0; lateral (L)=1.8; ventral (V)=2.0 with reference to bregma.
A widely used method for testing fluid preference is the two-bottle choice paradigm, in which water and 10% (v/v) alcohol solution were offered in graduated drinking tubes equipped with metallic drinking spouts and their consumption was measured by reading the volume consumed from the graduated tubes. Food intake was measured by weighing the food containers and taking into account spillage. Alcohol, water and food intakes are expressed as g/kg to reduce the influence of differences in body weight.
To examine whether the effect of andrographolide on alcohol intake is mediated by brain PPAR receptors, another group of msP rats (N=31) was treated ICV with 5 μg/rat of the PPAR antagonist GW9662 and then injected with andrographolide (10 mg/kg) or its vehicle. In a between-subject design each group of animals (N=7-8/group) received a different drug dose for 6 consecutive days. GW9662 or its vehicle were administered twice daily at 12 hours and 30 minutes before the beginning of the dark period of the light-dark cycle. Andrographolide was given immediately after GW9662 administrations.
Alcohol, water, and food intake was recorded at 0.5, 2, 8 and 24 hours from the moment that alcohol was made available.

Assay [4] has as its target T3, PPAR α (Mus musculus, UniProt P23204).
T3 construct: host or cells: 3T3-L1
T3 sequence (P23204 1-468): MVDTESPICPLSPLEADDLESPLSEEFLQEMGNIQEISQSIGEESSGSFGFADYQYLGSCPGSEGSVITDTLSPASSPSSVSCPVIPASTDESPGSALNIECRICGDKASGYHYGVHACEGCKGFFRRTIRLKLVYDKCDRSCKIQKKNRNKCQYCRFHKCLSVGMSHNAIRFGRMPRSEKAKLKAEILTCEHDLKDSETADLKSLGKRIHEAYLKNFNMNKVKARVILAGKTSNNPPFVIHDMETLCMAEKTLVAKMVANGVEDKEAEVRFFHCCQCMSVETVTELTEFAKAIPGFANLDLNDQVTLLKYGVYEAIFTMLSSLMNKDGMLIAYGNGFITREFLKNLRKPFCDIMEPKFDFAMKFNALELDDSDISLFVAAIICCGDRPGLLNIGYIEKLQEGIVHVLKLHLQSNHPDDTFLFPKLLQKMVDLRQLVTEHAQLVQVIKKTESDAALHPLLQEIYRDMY
To be noted: 3T3-L1 cells; cited from earlier work.

The target of assay [5] is PPAR γ ligand binding domain (Homo sapiens, UniProt P37231). As to conditions: cited from earlier work.
For assay [6], the target named is T4, PPAR δ ligand binding domain (Homo sapiens, UniProt Q03181).
T4 sequence (Q03181 211-439 limits assumed): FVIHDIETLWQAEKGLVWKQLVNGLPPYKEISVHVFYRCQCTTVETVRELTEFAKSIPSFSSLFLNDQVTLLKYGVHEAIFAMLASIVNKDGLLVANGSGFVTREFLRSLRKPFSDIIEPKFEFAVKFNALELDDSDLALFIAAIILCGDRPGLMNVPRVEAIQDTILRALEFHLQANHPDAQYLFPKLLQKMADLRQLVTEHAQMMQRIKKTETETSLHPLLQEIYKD
As to conditions: cited from earlier work.

Assay [7] has as its target T5, PPARγ (Mus musculus, UniProt P37238).
T5 construct: host or cells: 3T3-L1
T5 sequence (P37238 1-505): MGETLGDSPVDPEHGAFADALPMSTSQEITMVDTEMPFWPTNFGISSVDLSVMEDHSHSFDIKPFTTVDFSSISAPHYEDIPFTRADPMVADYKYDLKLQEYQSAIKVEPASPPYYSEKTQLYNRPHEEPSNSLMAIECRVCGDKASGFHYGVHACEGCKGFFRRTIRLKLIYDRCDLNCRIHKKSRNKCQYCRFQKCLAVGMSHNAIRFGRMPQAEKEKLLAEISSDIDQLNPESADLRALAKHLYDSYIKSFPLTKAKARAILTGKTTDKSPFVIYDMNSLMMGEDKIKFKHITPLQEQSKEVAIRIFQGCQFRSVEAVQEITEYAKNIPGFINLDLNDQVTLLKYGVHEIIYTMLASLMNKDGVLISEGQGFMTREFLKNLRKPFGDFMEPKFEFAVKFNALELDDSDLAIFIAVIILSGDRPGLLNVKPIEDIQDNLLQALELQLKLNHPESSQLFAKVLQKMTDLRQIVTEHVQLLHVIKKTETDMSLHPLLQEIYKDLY
To be noted: 3T3-L1 cells; cited from earlier work.

Assay [8] has as its target T5, PPARγ. To be noted: 3T3-L1 preadipocytes; cited from earlier work.
The target in assay [9] is T2, PPARγ. To be noted: cited from earlier work. This is another data set of the same source.

“Also recorded” adds a separate entry of the source. Read-outs that look alike come from different tables or passages of the source.

T1 sequence (P37231 with tags, fused parts or gaps limits assumed): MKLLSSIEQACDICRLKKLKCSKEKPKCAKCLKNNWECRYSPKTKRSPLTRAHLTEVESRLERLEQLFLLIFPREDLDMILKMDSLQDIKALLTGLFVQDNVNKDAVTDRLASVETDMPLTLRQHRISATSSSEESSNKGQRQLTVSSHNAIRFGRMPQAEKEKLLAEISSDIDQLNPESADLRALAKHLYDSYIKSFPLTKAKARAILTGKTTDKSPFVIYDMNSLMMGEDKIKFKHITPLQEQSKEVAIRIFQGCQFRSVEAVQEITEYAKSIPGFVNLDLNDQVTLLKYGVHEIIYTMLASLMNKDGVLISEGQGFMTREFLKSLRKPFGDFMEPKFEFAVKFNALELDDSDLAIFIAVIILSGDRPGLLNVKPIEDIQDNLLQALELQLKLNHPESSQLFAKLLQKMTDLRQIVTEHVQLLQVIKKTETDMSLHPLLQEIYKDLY

For `CC1(C)C=Cc2c(ccc3c2OC[C@@H](c2cc(C=O)c(O)cc2O)C3)O1` [5′-formylglabridin], the PPAR-gamma ligand-binding activity result in [1] was “significant PPAR-gamma ligand-binding activity”.

With `CC(C)=CCc1cc([C@H]2Oc3cc(O)ccc3C[C@H]2O)ccc1O` [(2R,3R)-3,4′,7-trihydroxy-3′-prenylflavane], the PPAR-gamma ligand-binding activity result in [1] is “significant PPAR-gamma ligand-binding activity”.

On to `COc1ccc([C@@H]2COc3cc(O)ccc3C2)c(O)c1O` [(3R)-2′,3′,7-trihydroxy-4′-methoxyisoflavan], for which the PPAR-gamma ligand-binding activity result in assay [1] was “significant PPAR-gamma ligand-binding activity”.

`CC(C)=CCCC(C)CCO` (stereo not drawn) [Citronellol, citronellol]: the “activation of PPARγ” value in assay [2] is recorded as “activate PPARγ”.

For the compound `O=C(Nc1ccccc1)c1cc([N+](=O)[O-])ccc1Cl` [GW9662], the alcohol drinking entry in assay [3] (GW9662 5 μg/rat ICV alone, twice daily, 6 days, p>0.05) is given as “no similar effect”. Moreover, the “blockade of the andrographolide effect on alcohol drinking” value in assay [3] (GW9662 5 μg/rat ICV given before andrographolide 10 mg/kg) is “blocked the effect of andrographolide at 8 and 24 hours starting from the third day of treatment; also recorded: completely prevents the andrographolide effect on alcohol drinking”.

Take `CCCC\C=C/C=C/C=C\CCCCCCCC(=O)O` [PUA, punicic acid]: the “PPAR α reporter activity” value in assay [4] is “dose-dependent increase”. Moreover, the “binding to PPAR γ ligand binding domain” value in assay [5] was “bind”. Moreover, the “binding to PPAR δ ligand binding domain” value in assay [6] was “bind”. Also, the “PPAR γ reporter activity” value in [7] is reported as “dose-dependent increase”.

Regarding `CC1=CC(=O)CC(C)(C)[C@@]1(O)/C=C/C(C)=C\C(=O)O` [abscisic acid], the “activity of PPARγ” value in assay [8] is recorded as “increase the activity of PPARγ”.

`COc1ccc(-c2coc3cc(O)cc(O)c3c2=O)cc1` [biochanin A]: the “activation of PPARγ” value in assay [9] was “potent activators of PPARγ”.

For `COc1cc(O)ccc1/C=C/C(=O)c1ccc(O)cc1` [echinatin], the PPAR-gamma ligand-binding activity result in assay [1] is “significant PPAR-gamma ligand-binding activity”.

With `CC(C)=CCc1c(O)cc(O)c2c(=O)c(-c3ccc(O)c(O)c3)coc12` [gancaonin L], the PPAR-gamma ligand-binding activity entry in assay [1] is “significant PPAR-gamma ligand-binding activity”.

`O=c1c(-c2ccc(O)cc2)coc2cc(O)cc(O)c12` [genistein]: the “activation of PPARγ” value in [9] is reported as “potent activators of PPARγ”.

Take `CC(C)=CCC/C(C)=C/CO` [geraniol]: the “activation of PPARγ” value in assay [2] is on record as “activate PPARγ”.

In the case of `CC(C)=CCc1cc([C@@H]2CC(=O)c3ccc(O)c(CC=C(C)C)c3O2)ccc1O` [glabrol], the PPAR-gamma ligand-binding activity result in [1] is “significant PPAR-gamma ligand-binding activity”.

As to `CC1(C)C=Cc2c(ccc(-c3coc4cc(O)ccc4c3=O)c2O)O1` [glabrone], the PPAR-gamma ligand-binding activity entry in [1] is “significant PPAR-gamma ligand-binding activity”.

With `CC1(C)C=Cc2c(ccc3cc(-c4ccc(O)cc4O)c(=O)oc23)O1` [kanzonol W], the PPAR-gamma ligand-binding activity result in assay [1] is listed as “significant PPAR-gamma ligand-binding activity”.

For the compound `CC(C)=CCc1c(O)ccc([C@@H]2COc3c(ccc(O)c3CC=C(C)C)C2)c1O` [kanzonol X], in assay [1], the PPAR-gamma ligand-binding activity entry was “significant PPAR-gamma ligand-binding activity”.

As to `CC(C)=CCC/C(C)=C\CO` [nerol], the “activation of PPARγ” value in assay [2] is listed as “not”.

As to `CC(C)=CCc1cc([C@@H]2CC(=O)c3ccc4c(c3O2)C=CC(C)(C)O4)ccc1O` [shinflavanone], the PPAR-gamma ligand-binding activity result in assay [1] is “significant PPAR-gamma ligand-binding activity”.

On to `CC1(C)C=Cc2c(ccc3c2OC[C@H]2c4ccc(O)cc4O[C@@H]32)O1` [shinpterocarpin], for which the PPAR-gamma ligand-binding activity result in assay [1] is listed as “significant PPAR-gamma ligand-binding activity”.

Turning to licoflavanone A, the PPAR-gamma ligand-binding activity entry in [1] was “significant PPAR-gamma ligand-binding activity”.

Source of the values: patent US20140072662A1, “Andrographis Paniculata Compositions and Methods for Treatment of Addictions” (Omeros Corporation, priority 2012, published 2014).
